Experiment [1] concerns mature B cells. The experiment can be described thus: Apoptosis assay (propidium iodide flow cytometry) in mature B cells. The experiment is classed as cell-based, mouse. Conditions: inhibitor added 15 minutes before stimulation with anti-Ig. As to the method:
Purified populations of either immature B cells obtained from the spleens of day 14 autoreconstituting mice or mature B cells isolated from spleens of normal adult mice were incubated in the absence or presence of 50 μg/ml of rabbit anti-mouse IgM F(ab′)2 fragments (anti-Ig) for 16-18 hours. […] Similar results were observed using a modified TUNEL technique that detects nicked DNA.
The role of PKC in preventing BCR-induced apoptosis of immature B cells was also examined using inhibitors of PKC.
Purified B cells were cultured under various conditions overnight in either sterile 2 ml click-cap tubes or 96-well plates. PKC inhibitors were added 15 minutes before the addition of the stimulant. After 14-18 hours in the case of immature B cells or 24 hours in the case of mature B cells, the cells were harvested and washed in PBS containing 2% FCS. Cells were fixed and permeabilized by resuspending in 70% ethanol made in 1xPBS and incubating at −20° C. for at least 2 hours. […] The cells were stained at 4° C. overnight and analyzed by flow cytometry on a Becton Dickinson FACScan using LYSYS II software. The mean percentages of apoptotic cells and the standard errors for each culture condition were determined and significance was assessed by the Student's t-test.

The target of experiment [2] is T1, PKCε (Mus musculus, UniProt P16054).
T1 construct: endogenous in cells; host or cells: primary mature splenic B cells of mice
T1 sequence (P16054 1-737): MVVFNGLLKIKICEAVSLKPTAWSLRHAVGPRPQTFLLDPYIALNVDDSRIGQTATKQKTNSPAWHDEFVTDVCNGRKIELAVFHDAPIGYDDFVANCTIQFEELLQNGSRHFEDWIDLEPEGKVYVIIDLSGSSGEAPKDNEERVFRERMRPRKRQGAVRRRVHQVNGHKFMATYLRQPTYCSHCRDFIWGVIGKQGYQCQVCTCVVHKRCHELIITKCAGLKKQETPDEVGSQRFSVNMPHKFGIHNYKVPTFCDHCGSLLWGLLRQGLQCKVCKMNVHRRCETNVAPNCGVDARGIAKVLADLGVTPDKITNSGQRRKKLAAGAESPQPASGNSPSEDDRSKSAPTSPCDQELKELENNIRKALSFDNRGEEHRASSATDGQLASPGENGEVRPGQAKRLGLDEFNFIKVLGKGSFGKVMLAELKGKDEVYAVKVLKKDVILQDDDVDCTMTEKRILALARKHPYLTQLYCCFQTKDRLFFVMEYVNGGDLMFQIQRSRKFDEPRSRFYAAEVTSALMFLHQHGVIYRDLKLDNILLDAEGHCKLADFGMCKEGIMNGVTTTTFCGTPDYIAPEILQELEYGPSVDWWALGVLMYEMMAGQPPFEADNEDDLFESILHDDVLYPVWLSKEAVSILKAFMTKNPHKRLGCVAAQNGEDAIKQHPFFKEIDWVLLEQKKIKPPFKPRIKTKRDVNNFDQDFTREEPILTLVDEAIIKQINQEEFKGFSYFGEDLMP
In words: PKC depletion monitored by Western blot analysis. The experiment is classed as cell-based. Conditions: PDBu-treated B cells. As to the method: (§1) Therefore, experiments were performed to determine if PKC-depleted mature B cells were susceptible to BCR-induced apoptosis. […] PKC depletion in PDBu- or mock-treated cultures was monitored by Western blot analysis. […] PKC levels in unstimulated immature and mature cells were quite similar, making it unlikely that differential regulation of PKC activity would occur at the level of expression of the individual isoenzyes.
(§2) For analysis of postnuclear extracts, 1×10^7 cells were lysed in 50 μl of Triton-X lysis buffer (0.1% Triton-X-100; 100 mM Tris, pH 8.0; 10.8 μg/ml aprotinin; 1.5 μg/ml each of leupeptin, pepstatin A, chymostatin, and antipain; 2 mM phenylmethylsulfonyl fluoride; 1 mM N-ethylmaleimide) on ice for 30 minutes. Lysates were microcentrifuged at 14,000× g at 4° C. for 10 minutes to remove the Triton-X insoluble fraction. Lysates from equivalent cell numbers were fractionated on SDS-PAGE gels and electroblotted onto Immobilon (Millipore, Bedford, Mass.). Blots were incubated overnight in Tris-buffered saline with Tween-TBST (10 mM Tris, pH 8.0; 137 mM NaCl; 0.05% Tween 20) plus 2% bovine serum albumin to block nonspecific binding. Membranes were washed twice with TBST and probed with the appropriate antibody solutions for 90 minutes, then washed 3 times in TBST, followed by secondary incubation with the appropriate horseradish peroxidase-conjugated reagents. Three washes with TBST were conducted before detection with an enhanced chemiluminescence system.

Experiment [3] concerns the target T2, PKCβ (Mus musculus, UniProt P68404).
T2 construct: endogenous in cells; host or cells: primary mature splenic B cells of mice
In words: PKC depletion monitored by Western blot analysis. Type of experiment: cell-based. Conditions: PDBu-treated B cells. The procedure:
as §1, §2

Experiment [4] deals with T3, PKCδ (Mus musculus, UniProt P28867).
T3 construct: endogenous in cells; host or cells: primary mature splenic B cells of mice
T3 sequence (P28867 whole entry): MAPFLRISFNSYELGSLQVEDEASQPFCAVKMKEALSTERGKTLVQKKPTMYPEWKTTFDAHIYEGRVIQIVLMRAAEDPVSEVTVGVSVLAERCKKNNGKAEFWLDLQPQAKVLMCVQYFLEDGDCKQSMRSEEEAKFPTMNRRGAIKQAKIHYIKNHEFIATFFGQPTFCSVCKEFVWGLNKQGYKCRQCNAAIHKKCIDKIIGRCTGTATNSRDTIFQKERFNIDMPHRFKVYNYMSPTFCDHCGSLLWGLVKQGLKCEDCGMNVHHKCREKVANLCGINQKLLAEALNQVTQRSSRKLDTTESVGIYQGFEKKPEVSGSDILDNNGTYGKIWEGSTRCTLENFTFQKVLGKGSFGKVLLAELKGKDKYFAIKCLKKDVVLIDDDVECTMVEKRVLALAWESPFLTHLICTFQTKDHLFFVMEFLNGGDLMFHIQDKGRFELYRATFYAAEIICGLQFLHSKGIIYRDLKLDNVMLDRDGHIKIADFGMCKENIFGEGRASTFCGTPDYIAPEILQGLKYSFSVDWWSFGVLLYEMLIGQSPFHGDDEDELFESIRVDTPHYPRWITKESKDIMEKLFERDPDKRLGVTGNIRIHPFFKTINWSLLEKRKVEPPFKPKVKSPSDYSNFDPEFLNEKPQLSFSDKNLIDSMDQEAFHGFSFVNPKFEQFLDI
In words: PKC depletion monitored by Western blot analysis. Type of experiment: cell-based. To be noted: PDBu-treated B cells. The procedure: as §1, §2

The subject of experiment [5] is PKC-depleted mature B cells. In words: Modified TUNEL analysis of PKC-depleted mature B cells. The experiment is classed as cell-based, mouse. As to the method: To assess the role of PKC activation in the prevention of antigen-mediated apoptosis, the ability of anti-Ig to induce apoptosis in PKC-depleted mature B cells was determined. […] After overnight treatment, the cells were washed expansively and subjected to an apoptotis analysis in which B cells were recultured with medium alone, anti-Ig, anti-Ig and PMA or anti-Ig and 4αPDD. After 8 hours incubation, the cells were harvested and subjected to a modified TUNEL analysis. […]. After PKC depletion, mature B cells were specifically susceptible to anti-Ig-mediated apoptosis.
In some cases, the frequency of apoptotic cells was quantitated using a modified TUNEL assay. Briefly, 1×10^6 cells were fixed in 2.5% formaldehyde in 1xPBS. The fixed cells were permeabilized in 0.2 ml 0.1% Triton/0.1% citrate for 2 minutes on ice. After washing, cells were incubated in 50 μl of nick translation reagent, which consists of 5 μl nick translation buffer (500 mM Tris, pH 7.5; 100 mM MgSO4; 1 mM DTT), 0.03 μl of fluorescein-dUTP (1 nmol/μl), 1 µl dTTP (0.7 nmol/μl), 1 μl each of dATP, dCTP, dGTP (1 nmol/μl) and 0.1 μl DNA polymerase (5 U/μl) and incubated for at least 1 hour at 37° C. Cells were then washed and analyzed by flow cytometry.

Experiment [6] deals with immature B cells. In words: Apoptosis assay (relative DNA content, propidium iodide flow cytometry) in immature B cells. Type of experiment: cell-based, mouse. Conditions: late-stage immature B cells, 18 hours, anti-IgM F(ab′)2 50 μg/ml plus phorbol ester (PMA 10 ng/ml). The procedure:
Experiments were performed using an in vitro model system that makes use of an immature population of B cells purified from the spleens of adult mice after sublethal irradiation. Immature B cells obtained from these autoreconstituting mice are phenotypically immature and respond identically to immature B cells purified from either […] bone marrow (Norvell, A. et al. 1995. J. Immunol. 154:4404; Norvell, A. and J. G. Monroe. 1996. J. Immunol. 156:1328). This homogeneous population of immature B cells is devoid of pre-B cells and mature B cells found in neonatal spleen and adult bone marrow, respectively. Further, unlike the immature B cells purified from either bone marrow or neonatal spleen, immature B cells from autoreconstituting mice can be isolated without positive selection on anti-Ig panning plates. Since large numbers of unmanipulated immature B cells can be obtained, autoreconstituting B cells are an ideal system for analyzing biochemical events responsible for tolerogenic signal transduction. The B cells isolated from these mice represent a transitional stage of development in which cells are subject to negative selection. This in vitro system uses apoptosis as an indicator of negative selection.
Purified populations of either immature B cells obtained from the spleens of day 14 autoreconstituting mice or mature B cells isolated from spleens of normal adult mice were incubated in the absence or presence of 50 μg/ml of rabbit anti-mouse IgM F(ab′)2 fragments (anti-Ig) for 16-18 hours. […]
The ability of PMA to protect immature B cells from BCR-induced apoptosis was assessed in the presence of the same two inhibitors. […]
Purified B cells were cultured under various conditions overnight in either sterile 2 ml click-cap tubes or 96-well plates. […] The cells were stained at 4° C. overnight and analyzed by flow cytometry on a Becton Dickinson FACScan using LYSYS II software. The mean percentages of apoptotic cells and the standard errors for each culture condition were determined and significance was assessed by the Student's t-test.

The subject of experiment [7] is BCR-induced increase in intracellular calcium. The experiment can be described thus: Measurement of intracellular calcium in Fura-2-AM loaded B cells. Type of experiment: cell-based, mouse. The procedure:
Since PMA was capable of rescuing mature, PKC-depleted B cells from anti-Ig-induced apoptosis, experiments were performed to assess whether PMA was capable of desensitizing the BCR in these cells.
Purified B cells were washed in HBSS without phenol red and supplemented with 2% FCS. For loading, cells were resuspended in HBSS without phenol red and supplemented with 10% FCS. Fura-2 acetoxymethyl ester was added to a final concentration of 1 μM from a 1 mM stock made in DMSO. Cells were incubated in light tight tubes for 30 minutes at 30° C. with occasional inversion. Cells were then washed twice with HEBSS+2% FCS and resuspended at a concentration of 3.3×10^7/ml in HBSS+10% FCS. Fluorometric analysis of dyed cells was performed using a luminescence spectrometer. Excitation was at 340 nm and 380 nM with emission monitored at 510 nm. B cells were diluted to 2×10^6/ml in HBSS and equilibrated for 2 minutes, at which time a baseline spectrum was read. The cells were stimulated with rabbit anti-mouse IgM F(ab′)2 fragments (50 μg/ml) and the response measured. Cells were then lysed with Triton X-100 and Fmax and Fmin were measured by the chelation of extracellular calcium with the addition of EGTA. Calcium traces were calculated by the Intracellular Biochemistry Application (Perkin-Elmer) using these values.

T2 sequence (P68404 whole entry): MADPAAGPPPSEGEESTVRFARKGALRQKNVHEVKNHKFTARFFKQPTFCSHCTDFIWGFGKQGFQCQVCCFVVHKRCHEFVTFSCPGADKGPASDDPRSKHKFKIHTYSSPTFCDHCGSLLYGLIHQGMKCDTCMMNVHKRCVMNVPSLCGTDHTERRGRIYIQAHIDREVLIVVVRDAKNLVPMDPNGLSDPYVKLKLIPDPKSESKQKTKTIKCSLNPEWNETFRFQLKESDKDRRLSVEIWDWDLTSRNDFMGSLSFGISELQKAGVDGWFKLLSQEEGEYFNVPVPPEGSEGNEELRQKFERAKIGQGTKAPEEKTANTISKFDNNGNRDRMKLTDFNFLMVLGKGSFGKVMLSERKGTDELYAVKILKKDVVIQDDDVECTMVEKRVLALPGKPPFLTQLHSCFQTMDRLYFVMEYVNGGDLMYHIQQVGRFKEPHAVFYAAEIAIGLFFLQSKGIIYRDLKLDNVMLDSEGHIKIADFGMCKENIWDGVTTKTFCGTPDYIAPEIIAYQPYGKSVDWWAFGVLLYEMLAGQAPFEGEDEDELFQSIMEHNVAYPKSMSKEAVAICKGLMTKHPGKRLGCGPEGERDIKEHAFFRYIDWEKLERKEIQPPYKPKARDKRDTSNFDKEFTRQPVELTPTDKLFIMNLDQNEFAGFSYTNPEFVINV

Take `CN(C)C[C@H]1CCn2c(c(C3=C(c4cn(C)c5ccccc45)C(=O)NC3=O)c3ccccc32)C1` [Ro-32-0432]: the induction of apoptosis result in experiment [1] was “led to induction of apoptosis”.
In the case of `CCCC(=O)O[C@@H]1[C@@H](C)[C@@]2(O)[C@@H](C=C(CO)C[C@]3(O)C(=O)C(C)=C[C@@H]23)[C@@H]2C(C)(C)[C@]12OC(=O)CCC` [PDBu], in experiment [2], the “depletion of PKCε” value is given as “also depleted, although not as efficiently”. In experiment [3], the “depletion of PKCβ” value is given as “efficiently depleted”. Moreover, in experiment [4], the “depletion of PKCδ” value was “also depleted, although not as efficiently”. Besides, in experiment [5] (mature B cells cultured overnight with 100 ng/ml PDBu, washed, recultured 8 hours with anti-Ig), the “number of apoptotic cells after anti-Ig” value was “significant and striking increase in the number of apoptotic cells”.
As to `CCCCCCCCCC(=O)O[C@@H]1[C@@H](C)[C@@]2(O)[C@@H](C=C(CO)C[C@@]3(O)C(=O)C(C)=C[C@@H]23)[C@@H]2C(C)(C)[C@]12OC(=O)CCCCCCCCC` [4αPDD], in experiment [6], the “protection (rescue) from anti-IgM-induced apoptosis” value (“protection (rescue)” below) is given as “efficiently rescued cells”.
In the case of `CN(C)CCCn1cc(C2=C(c3c[nH]c4ccccc34)C(=O)NC2=O)c2ccccc21` [bisindoylmaleimide I], the induction of apoptosis result in experiment [1] was “led to induction of apoptosis”.
Take `CCCCCCCCCCCCCC(=O)O[C@@H]1[C@@H](C)[C@@]2(O)[C@@H](C=C(CO)C[C@]3(O)C(=O)C(C)=C[C@@H]23)[C@@H]2C(C)(C)[C@]12OC(C)=O` [PMA]: the “protection (rescue)” value in experiment [6] is “significant protection from anti-IgM-induced apoptosis”. Besides, the “effect on BCR-induced calcium flux” value in experiment [7] (PDBu-treated cells) is “did not alter the BCR-induced calcium flux”. In addition, in experiment [7] (mock-treated B cells), the “effect on BCR-induced increase in intracellular calcium” value is “efficiently reduced the BCR-induced increase in intracellular calcium”. Moreover, in experiment [5] (PDBu-treated (PKC-depleted) mature B cells, anti-Ig and PMA, 8 hours), the “rescue from anti-Ig-induced apoptosis” value was “still capable of rescuing the cells from anti-Ig-induced apoptosis”.
As to `CCCCCCCCCC(=O)O[C@@H]1[C@@H](C)[C@@]2(O)[C@@H](C=C(CO)C[C@]3(O)C(=O)C(C)=C[C@@H]23)[C@@H]2C(C)(C)[C@]12OC(=O)CCCCCCCCC` [4βPDD], in experiment [6], the “protection (rescue)” value is listed as “did not rescue cells”.

Source of the values: US20020019332A1, “METHOD OF INDUCING APOPTOSIS IN B-LYMPHOCYTES” (priority 1999, published 2002).
